In ChEMBL document CHEMBL3044952, “Synthesis and insect antifeedant activity of 2-substituted 2,3-dihydrofuran-3-ols and butenolides (Part II)” (1999):

Tests used:
Type in all cases: functional
Pieris brassicae = assay: Antifeedant activity against fifth-instar larval stage of Pieris brassicae fed on compound-treated cabbage leaf disks at 5 mM by two choice assay
Spodoptera exempta = assay: Antifeedant activity against Spodoptera exempta larvae fed on artificial diet containing compound at 100 ppm by two choice assay
Spodoptera frugiperda = assay: Antifeedant activity against Spodoptera frugiperda (fall armyworm) larvae fed on artificial diet containing compound at 100 ppm by two choice assay

SMILES: O=C1CC(CCC2CCCCC2)CO1 (configuration not stated)
- AFI (Pieris brassicae): -9.2%

SMILES: CC(=O)OC[C@@]12[C@@H](OC(C)=O)C[C@@H](C)[C@](C)(C[C@H](O)c3ccoc3)[C@H]1CCC[C@]21CO1 [6,19-DIACETYLTEUMASSILIN]
- AFI (Spodoptera exempta): 38%
- AFI (Spodoptera frugiperda): 94%

SMILES: COC1CC(O)(CCc2ccccc2)C(C)(C)O1 (configuration not stated)
- AFI (Pieris brassicae): 23%

SMILES: CC(=O)OC[C@@]12[C@@H](OC(C)=O)C[C@@H](C)[C@](C)([C@@H]3C[C@H]4C=CO[C@H]4O3)[C@H]1CCC[C@]21CO1 [CLERODIN]
- AFI (Spodoptera exempta): 76%
- AFI (Spodoptera frugiperda): 78%

SMILES: CC1(C)OC(O)CC1(O)CCc1ccccc1 (configuration not stated)
- AFI (Pieris brassicae): 5%

SMILES: CC1(C)OCCC1(O)CCc1ccccc1 (configuration not stated)
- AFI (Pieris brassicae): 28%

SMILES: CC1(C)OC(=O)C=C1CCC1CCCCC1
- AFI (Pieris brassicae): 26%

SMILES: CCCCCCC1(O)CC(=O)OC1(C)C (configuration not stated)
- AFI (Pieris brassicae): 11%

SMILES: CC1(C)OC(=O)CC1(O)CCc1ccccc1 (configuration not stated)
- AFI (Pieris brassicae): 36%

SMILES: CCCCCCC1=CC(=O)OC1(C)C
- AFI (Pieris brassicae): 9%

SMILES: CC(=O)OC[C@@]12[C@@H](OC(C)=O)C[C@@H](C)C(C)(C)[C@H]1CCC[C@]21CO1
- AFI (Spodoptera exempta): 20%
- AFI (Spodoptera frugiperda): 15%

SMILES: O=C1C=C(CCC2CCCCC2)CO1
- AFI (Pieris brassicae): 35%

SMILES: CC1(C)OC(=O)CC1(O)CCC1CCCCC1 (configuration not stated)
- AFI (Pieris brassicae): 15%

SMILES: CC1(C)OC(=O)C=C1CCc1ccccc1
- AFI (Pieris brassicae): 33%

SMILES: C[C@@H]1CC(O[Si](C)(C)C(C)(C)C)CC[C@@]1(C)CCC1=CC(=O)OC1 (some centres not stated)
- AFI (Spodoptera exempta): 34%
- AFI (Spodoptera frugiperda): 12%

SMILES: O=C1CC(O)(CCC2CCCCC2)CO1 (configuration not stated)
- AFI (Pieris brassicae): -4%

SMILES: CC(=O)OC[C@@]12[C@@H](OC(C)=O)C[C@@H](C)[C@](C)(CCC3=CC(=O)OC3)[C@H]1CCC[C@]21CO1 [AJUGARIN I]
- AFI (Spodoptera exempta): 73%
- AFI (Spodoptera frugiperda): 47%
